Legend:
NCI-H358 (K-Ras G12C) = experiment: CellTiter-Glo cell viability assay, NCI-H358; assay type: cell-based, human; details: Homo sapiens, NCI-H358, 120 h, 5-day treatment; read-out: H358 Cell Viability assay data (K-Ras G12C, IC50)
Method in brief: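 Viability read-out was luminescent (CellTiter-Glo) on day 5 of compound exposure in K-Ras G12C NCI-H358 cells. Values were expressed as percent of mean DMSO signal and fitted with a four-parameter logistic curve.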

KRAS G12C = KRAS G12C (Homo sapiens (Human), UniProt P01116+P62937, G12C); experiment: Ras-Raf disruption/FRET/MOA assay (BRAF RBD, Cyclophilin A); assay type: biochemical; details: read-out: KRAS G12C FRET IC50
Method in brief: (§1)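 First, 25 μM Cyclophilin A, 12.5 nM His6-Ras-GMPPNP and 50 nM GST-BRAF RBD are mixed with diluted compound at pH 7.3. Next, 3 h at 25° C. Then 10 nM anti-His Eu-W1024 plus 50 nM anti-GST allophycocyanin for 1.5 h before TR-FRET reading.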

KRAS G12D = KRAS G12D (Homo sapiens (Human), UniProt P01116+P62937, G12D); experiment: as above; assay type: biochemical; details: read-out: KRAS G12D FRET IC50
Method in brief: as §1

KRAS G12V = KRAS G12V (Homo sapiens (Human), UniProt P01116+P62937, G12V); experiment: as above; assay type: biochemical; details: read-out: KRAS G12V FRET IC50
Method in brief: as §1

KRAS G13C = KRAS G13C (Homo sapiens (Human), UniProt P01116+P62937, G13C); experiment: as above; assay type: biochemical; details: read-out: KRAS G13C FRET IC50
Method in brief: as §1

KRAS G12S = KRAS G12S (Homo sapiens (Human), UniProt P01116+P62937, G12S); experiment: as above; assay type: biochemical; details: read-out: KRAS G12S FRET IC50
Method in brief: as §1

KRAS G13D = KRAS G13D (Homo sapiens (Human), UniProt P01116+P62937, G13D); experiment: as above; assay type: biochemical; details: read-out: KRAS G13D FRET data IC50
Method in brief: as §1

KRAS WT = KRAS WT (Homo sapiens (Human), UniProt P01116+P62937); experiment: as above; assay type: biochemical; details: read-out: KRAS WT FRET data IC50
Method in brief: as §1

NRAS G12C = NRAS G12C (Homo sapiens (Human), UniProt P01111+P62937, G12C); experiment: as above; assay type: biochemical; details: read-out: NRAS G12C FRET data IC50
Method in brief: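 Measured: compound-facilitated Cyclophilin A:Ras complex blocking RAF RBD binding. Conditions: 12.5 nM Ras-GMPPNP, 50 nM BRAF RBD, 25 μM CypA, 3 h plus 1.5 h detection. Output: IC50 from TR-FRET ratio.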

[1] = test system: K-Ras G12C (NCI-H358 cells); experiment: Potency assay: pERK in NCI-H358 cells; assay type: cell-based, human; details: Homo sapiens; NCI-H358 cells, 4 hours; read-out: pERK EC50 (H358 KRAS G12C)
Method in brief: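 Cells plated the day before were exposed for 4 h at 37° C, 5% CO2 to a 10-point, 3-fold DMSO dilution series (10 mM top stock), in duplicate. Phospho-ERK was read by AlphaLISA SureFire Ultra or by In-Cell Western with DRAQ5 DNA stain, and IC50 came from a 4-parameter sigmoidal fit.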

[2] = test system: NCI-H358 cells (K-Ras G12C); experiment: CellTiter-Glo cell viability, NCI-H358; assay type: cell-based, human; details: Homo sapiens, NCI-H358, 120 h, K-Ras G12C, 5-day treatment; read-out: H358 Cell Viability IC50
Method in brief: (§2)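 Viability read by luminescence on day 5 after direct compound addition to cells, following ~30 min room-temperature equilibration. Values expressed as percent of mean DMSO signal, curves fitted with a four-parameter logistic model.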

[3] = test system: Capan-1 cells (K-Ras G12V); experiment: CellTiter-Glo cell viability, Capan-1; assay type: cell-based, human; details: Homo sapiens, CAPAN-1, 120 h, K-Ras G12V, 5-day treatment; read-out: Capan-1 Cell Viability IC50
Method in brief: as §2

Sequence of KRAS G12V (P01116 other isoform, or with tags, fused parts or gaps G12V): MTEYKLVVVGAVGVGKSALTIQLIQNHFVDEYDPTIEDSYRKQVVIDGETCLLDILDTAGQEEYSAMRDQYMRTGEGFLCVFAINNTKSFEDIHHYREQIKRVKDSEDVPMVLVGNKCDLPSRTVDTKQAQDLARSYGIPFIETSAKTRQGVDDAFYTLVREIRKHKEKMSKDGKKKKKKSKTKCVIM
Sequence of KRAS G12V (P62937 whole entry): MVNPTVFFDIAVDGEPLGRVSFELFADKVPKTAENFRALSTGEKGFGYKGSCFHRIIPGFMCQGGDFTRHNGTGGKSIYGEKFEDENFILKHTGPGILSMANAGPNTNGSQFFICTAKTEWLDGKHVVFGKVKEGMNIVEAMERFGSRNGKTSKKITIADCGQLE
Sequence of NRAS G12C (P01111 whole entry G12C): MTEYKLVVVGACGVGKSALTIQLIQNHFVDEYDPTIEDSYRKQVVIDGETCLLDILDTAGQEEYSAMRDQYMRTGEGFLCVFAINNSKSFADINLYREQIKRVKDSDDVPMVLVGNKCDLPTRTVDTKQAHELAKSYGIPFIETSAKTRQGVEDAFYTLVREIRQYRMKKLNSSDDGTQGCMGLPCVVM
Sequence of NRAS G12C (P62937 whole entry): as the sequence (P62937 whole entry) above
Sequence of KRAS G12D (P01116 other isoform, or with tags, fused parts or gaps G12D): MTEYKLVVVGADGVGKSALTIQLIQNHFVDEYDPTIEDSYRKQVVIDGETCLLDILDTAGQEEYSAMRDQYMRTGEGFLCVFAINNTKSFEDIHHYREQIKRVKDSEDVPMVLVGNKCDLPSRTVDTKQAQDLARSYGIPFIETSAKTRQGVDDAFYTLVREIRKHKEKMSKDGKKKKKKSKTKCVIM
Sequence of KRAS G12D (P62937 whole entry): as the sequence (P62937 whole entry) above
Sequence of KRAS G13C (P01116 other isoform, or with tags, fused parts or gaps G13C): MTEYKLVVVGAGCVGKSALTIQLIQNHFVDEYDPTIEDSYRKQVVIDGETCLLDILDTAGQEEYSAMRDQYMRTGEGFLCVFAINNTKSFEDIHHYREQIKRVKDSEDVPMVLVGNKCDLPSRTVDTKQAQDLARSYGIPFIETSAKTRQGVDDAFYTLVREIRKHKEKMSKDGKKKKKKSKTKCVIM
Sequence of KRAS G13C (P62937 whole entry): as the sequence (P62937 whole entry) above
Sequence of KRAS G12S (P01116 other isoform, or with tags, fused parts or gaps G12S): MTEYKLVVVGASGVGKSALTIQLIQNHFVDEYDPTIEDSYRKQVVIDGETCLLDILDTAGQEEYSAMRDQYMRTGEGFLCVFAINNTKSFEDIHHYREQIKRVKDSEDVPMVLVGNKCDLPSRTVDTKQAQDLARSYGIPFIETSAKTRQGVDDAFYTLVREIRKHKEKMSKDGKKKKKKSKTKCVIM
Sequence of KRAS G12S (P62937 whole entry): as the sequence (P62937 whole entry) above
Sequence of KRAS G12C (P01116-2 other isoform, or with tags, fused parts or gaps G12C): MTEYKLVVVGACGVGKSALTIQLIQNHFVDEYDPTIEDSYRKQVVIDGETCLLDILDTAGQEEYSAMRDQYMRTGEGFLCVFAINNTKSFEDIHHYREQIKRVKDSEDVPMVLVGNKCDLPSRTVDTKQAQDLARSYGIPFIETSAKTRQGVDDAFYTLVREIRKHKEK
Sequence of KRAS G12C (P62937 whole entry): as the sequence (P62937 whole entry) above
Sequence of KRAS G13D (P01116 other isoform, or with tags, fused parts or gaps G13D): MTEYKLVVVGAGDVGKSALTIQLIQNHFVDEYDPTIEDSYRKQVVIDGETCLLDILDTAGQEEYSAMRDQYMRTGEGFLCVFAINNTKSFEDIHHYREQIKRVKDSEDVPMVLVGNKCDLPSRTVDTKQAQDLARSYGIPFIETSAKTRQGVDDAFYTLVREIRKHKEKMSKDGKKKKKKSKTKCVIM
Sequence of KRAS G13D (P62937 whole entry): as the sequence (P62937 whole entry) above
Sequence of KRAS WT (P01116 other isoform, or with tags, fused parts or gaps): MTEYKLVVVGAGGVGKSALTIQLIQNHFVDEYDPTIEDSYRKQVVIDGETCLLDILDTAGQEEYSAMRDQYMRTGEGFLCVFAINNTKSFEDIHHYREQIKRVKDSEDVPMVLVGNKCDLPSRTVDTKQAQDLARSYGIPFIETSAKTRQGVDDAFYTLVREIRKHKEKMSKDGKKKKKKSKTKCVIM
Sequence of KRAS WT (P62937 whole entry): as the sequence (P62937 whole entry) above

Structure (SMILES)	IC50 (NCI-H358 (K-Ras G12C))	IC50 (KRAS G12C)	IC50 (KRAS G12D)	IC50 (KRAS G12V)	IC50 (KRAS G13C)	IC50 (KRAS G12S)	IC50 (KRAS G13D)	IC50 (KRAS WT)	IC50 (NRAS G12C)	EC50 [1]	IC50 [2]	IC50 [3]
CCn1c(-c2cnccc2COC)c2c3cc(ccc31)-c1cc(O)cc(c1)C[C@H](NC(=O)[C@H](C(C)C)N(C)C(=O)[C@H]1CCN(C(=O)CO)C1)C(=O)N1CCC[C@H](N1)C(=O)OCC(C)(C)C2 [Compound A20]	10 to 100 nM	10 to 100 nM	1000 to 10000 nM	100 to 1000 nM	100 to 1000 nM	100 to 1000 nM	100 to 1000 nM	100 to 1000 nM	100 to 1000 nM	< 5000 nM	1000 to 10000 nM	–
CCn1c(-c2cnccc2COC)c2c3cc(ccc31)-c1cc(O)cc(c1)C[C@H](NC(=O)[C@H](C(C)C)N(C)C(=O)CNC(=N)N)C(=O)N1CCC[C@H](N1)C(=O)OCC(C)(C)C2 [Compound A68]	100 to 1000 nM	10 to 100 nM	100 to 1000 nM	100 to 1000 nM	10 to 100 nM	10 to 100 nM	100 to 1000 nM	100 to 1000 nM	100 to 1000 nM	–	> 10000 nM	–
CCn1c(-c2cccnc2[C@H](C)OC)c2c3cc(ccc31)-c1csc(n1)C[C@H](NC(=O)[C@H](C(C)C)N(C)C(=O)N1CC(OC(F)(F)F)C1)C(=O)N1CCC[C@H](N1)C(=O)OCC(C)(C)C2 [Compound A330]	–	10 to 100 nM	1000 to 10000 nM	100 to 1000 nM	100 to 1000 nM	100 to 1000 nM	100 to 1000 nM	100 to 1000 nM	10 to 100 nM	< 5000 nM	10 to 100 nM	10 to 100 nM
CCN(C)C(=O)N(C)[C@H](C(=O)N[C@H]1Cc2nc(cs2)-c2ccc3c(c2)c(c(-c2cccnc2[C@H](C)OC)n3CC)CC(C)(C)COC(=O)[C@@H]2CCCN(N2)C1=O)C(C)C [Compound A336]	–	10 to 100 nM	100 to 1000 nM	100 to 1000 nM	100 to 1000 nM	100 to 1000 nM	100 to 1000 nM	10 to 100 nM	10 to 100 nM	< 5000 nM	10 to 100 nM	10 to 100 nM
CCn1c(-c2cccnc2[C@H](C)OC)c2c3cc(ccc31)-c1cc(O)cc(c1)C[C@H](NC(=O)[C@H](C(C)C)N(C)C(=O)[C@@H]1CCN(C(=O)[C@]3(C)CCCN3C)C1)C(=O)N1CCC[C@H](N1)C(=O)OCC(C)(C)C2 [Compound A342]	–	10 to 100 nM	10 to 100 nM	10 to 100 nM	10 to 100 nM	10 to 100 nM	10 to 100 nM	10 to 100 nM	10 to 100 nM	< 5000 nM	10 to 100 nM	100 to 1000 nM
CCn1c(-c2cccnc2[C@H](C)OC)c2c3cc(ccc31)-c1csc(n1)C[C@H](NC(=O)[C@H](C(C)C)N(C)C(=O)N1CC(N)C1)C(=O)N1CCC[C@H](N1)C(=O)OCC(C)(C)C2 [Compound A343]	–	10 to 100 nM	100 to 1000 nM	100 to 1000 nM	100 to 1000 nM	100 to 1000 nM	100 to 1000 nM	100 to 1000 nM	10 to 100 nM	< 5000 nM	100 to 1000 nM	100 to 1000 nM
CCn1c(-c2cccnc2[C@H](C)OC)c2c3cc(ccc31)-c1cc(O)cc(c1)C[C@H](NC(=O)[C@H](C(C)C)N(C)C(=O)[C@H]1CCN(C(=O)OC3CN(C)C3)C1)C(=O)N1CCC[C@H](N1)C(=O)OCC(C)(C)C2 [Compound A348]	–	10 to 100 nM	10 to 100 nM	10 to 100 nM	10 to 100 nM	10 to 100 nM	10 to 100 nM	10 to 100 nM	10 to 100 nM	< 5000 nM	10 to 100 nM	100 to 1000 nM
CCn1c(-c2cccnc2[C@H](C)OC)c2c3cc(ccc31)-c1cc(O)cc(c1)C[C@H](NC(=O)[C@H](C(C)C)N(C)C(=O)[C@H]1CCN(C(=O)[C@@]3(C)CCCN3C)C1)C(=O)N1CCC[C@H](N1)C(=O)OCC(C)(C)C2 [Compound A379]	–	10 to 100 nM	10 to 100 nM	10 to 100 nM	10 to 100 nM	10 to 100 nM	10 to 100 nM	10 to 100 nM	10 to 100 nM	< 5000 nM	10 to 100 nM	100 to 1000 nM

Second part, led by results:

IC50 (NCI-H358 (K-Ras G12C))	IC50 (KRAS G12C)	IC50 (KRAS G12D)	IC50 (KRAS G12V)	IC50 (KRAS G13C)	IC50 (KRAS G12S)	IC50 (KRAS G13D)	IC50 (KRAS WT)	IC50 (NRAS G12C)	EC50 [1]	IC50 [2]	Structure (SMILES)	IC50 [3]
–	10 to 100 nM	100 to 1000 nM	100 to 1000 nM	100 to 1000 nM	100 to 1000 nM	100 to 1000 nM	10 to 100 nM	100 to 1000 nM	< 5000 nM	100 to 1000 nM	CCn1c(-c2cccnc2[C@H](C)OC)c2c3cc(ccc31)-c1cc(O)cc(c1)C[C@H](NC(=O)[C@H](C(C)C)N(C)C(=O)C13CCC(CC1)O3)C(=O)N1CCC[C@H](N1)C(=O)OCC(C)(C)C2 [Compound A412]	100 to 1000 nM
–	10 to 100 nM	100 to 1000 nM	100 to 1000 nM	10 to 100 nM	100 to 1000 nM	100 to 1000 nM	10 to 100 nM	10 to 100 nM	< 5000 nM	100 to 1000 nM	CCn1c(-c2cccnc2[C@H](C)OC)c2c3cc(ccc31)-c1cc(O)cc(c1)C[C@H](NC(=O)[C@H](C(C)C)N(C)C(=O)C1CC3(CCOCC3)CO1)C(=O)N1CCC[C@H](N1)C(=O)OCC(C)(C)C2 (stereo partly drawn) [Compound A413]	100 to 1000 nM
–	10 to 100 nM	100 to 1000 nM	100 to 1000 nM	10 to 100 nM	10 to 100 nM	100 to 1000 nM	100 to 1000 nM	10 to 100 nM	< 5000 nM	100 to 1000 nM	CCn1c(-c2cccnc2[C@H](C)OC)c2c3cc(ccc31)-c1cc(O)cc(c1)C[C@H](NC(=O)[C@H](C(C)C)N(C)C(=O)[C@H]1CC[C@@H](C(N)=O)O1)C(=O)N1CCC[C@H](N1)C(=O)OCC(C)(C)C2 [Compound A414]	1000 to 10000 nM
–	100 to 1000 nM	100 to 1000 nM	100 to 1000 nM	100 to 1000 nM	100 to 1000 nM	100 to 1000 nM	100 to 1000 nM	100 to 1000 nM	< 5000 nM	100 to 1000 nM	CCn1c(-c2cccnc2[C@H](C)OC)c2c3cc(ccc31)-c1cc(O)cc(c1)C[C@H](NC(=O)[C@H](C(C)C)N(C)C(=O)C1(C(F)F)CCCO1)C(=O)N1CCC[C@H](N1)C(=O)OCC(C)(C)C2 (stereo partly drawn) [Compound A416]	100 to 1000 nM
–	10 to 100 nM	100 to 1000 nM	100 to 1000 nM	10 to 100 nM	10 to 100 nM	100 to 1000 nM	10 to 100 nM	10 to 100 nM	< 5000 nM	100 to 1000 nM	CCn1c(-c2cccnc2[C@H](C)OC)c2c3cc(ccc31)-c1cc(O)cc(c1)C[C@H](NC(=O)[C@H](C(C)C)N(C)C(=O)[C@@H]1COC[C@@H]1N)C(=O)N1CCC[C@H](N1)C(=O)OCC(C)(C)C2 [Compound A418]	1000 to 10000 nM
–	100 to 1000 nM	100 to 1000 nM	1000 to 10000 nM	10 to 100 nM	100 to 1000 nM	100 to 1000 nM	100 to 1000 nM	100 to 1000 nM	< 5000 nM	100 to 1000 nM	CCn1c(-c2cccnc2[C@H](C)OC)c2c3cc(ccc31)-c1cc(O)cc(c1)C[C@H](NC(=O)[C@H](C(C)C)N(C)C(=O)[C@H]1[C@@H](N)[C@@H]3CC[C@H]1O3)C(=O)N1CCC[C@H](N1)C(=O)OCC(C)(C)C2 [Compound A421]	1000 to 10000 nM

Source: US20250195521A1 (Revolution Medicines, Inc., priority 2020, published 2025)
